Reference: ChEMBL document CHEMBL1201862, “PubChem BioAssay data set” (2004)
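Where inhibition never reached the appropriate level, the endpoint shown equals the highest concentration tested. Otherwise, values were interpolated linearly from a five-concentration, 48-hour dose response in 96-well plates. At the GI50, growth is halved.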 The source made the active and inactive calls. No stated cut-off is given here; in the data, active = GI50 up to about 1.1 µM and inactive = higher.

Assays:
Assay in all cases: NCI-60 cell line screen, 48 h
TK-10 = test system: TK-10
NCI-H226 = test system: NCI-H226
HT-29 = test system: HT-29
Hs-578T = test system: Hs-578T
K562 = test system: K562
SNB-19 = test system: SNB-19
NCI/ADR-RES = test system: NCI/ADR-RES
CAKI-1 = test system: CAKI-1
UACC-62 = test system: UACC-62
MCF7 = test system: MCF7
HL-60 = test system: HL-60
EKVX = test system: EKVX
KM12 = test system: KM12
OVCAR-5 = test system: OVCAR-5
M14 = test system: M14
SK-MEL-2 = test system: SK-MEL-2
MOLT-4 = test system: MOLT-4
BT-549 = test system: BT-549
HCT-116 = test system: HCT-116
DU-145 = test system: DU-145

Measured: GI50

CCOC(=O)c1sc2nc(SC)nc3c2c1NCN3c1ccc(F)c(F)c1
inactive: TK-10 22.6 µM | NCI-H226 29.9 µM | HT-29 29.8 µM | Hs-578T 4.28 µM | K562 > 100 µM | SNB-19 34.8 µM | NCI/ADR-RES 9.98 µM | CAKI-1 > 52.5 µM | UACC-62 > 52.4 µM | MCF7 36 µM | HL-60 > 100 µM | EKVX 32.4 µM | KM12 10.7 µM | OVCAR-5 > 100 µM | M14 31.4 µM | SK-MEL-2 > 71 µM | MOLT-4 > 55.2 µM | BT-549 6.79 µM | HCT-116 9.02 µM | DU-145 8.43 µM

COC(=O)c1ccc2c(c1)sc1nc(-c3ccc(OC)cc3)cn12
inactive: TK-10 > 100 µM | NCI-H226 > 100 µM | HT-29 83.4 µM | Hs-578T 37.3 µM | K562 38.2 µM | SNB-19 66.5 µM | NCI/ADR-RES > 100 µM | CAKI-1 > 100 µM | UACC-62 > 100 µM | MCF7 66.2 µM | HL-60 25.1 µM | EKVX > 100 µM | KM12 56.1 µM | OVCAR-5 > 100 µM | M14 > 100 µM | SK-MEL-2 > 100 µM | MOLT-4 > 100 µM | BT-549 43.7 µM | HCT-116 > 100 µM | DU-145 > 100 µM

COc1ccc(Oc2nc3cc(C(F)(F)F)ccc3nc2C(C)C)cc1
inactive: TK-10 81.7 µM | NCI-H226 21 µM | HT-29 19 µM | Hs-578T 31.6 µM | K562 24.6 µM | SNB-19 33.1 µM | NCI/ADR-RES 19.4 µM | CAKI-1 35.2 µM | UACC-62 28.2 µM | MCF7 18.8 µM | HL-60 18.7 µM | EKVX 19.2 µM | KM12 31.6 µM | OVCAR-5 24.9 µM | M14 31.6 µM | SK-MEL-2 18.5 µM | MOLT-4 15.7 µM | BT-549 22.4 µM | HCT-116 31 µM | DU-145 27.2 µM

COc1ccc(OC)c([N+](=O)[O-])c1-c1nc2sc(Cl)cn2c1/C=N/N=C(N)N
inactive: TK-10 25.2 µM | NCI-H226 18.2 µM | HT-29 15.5 µM | Hs-578T 19.1 µM | K562 7.53 µM | SNB-19 19.4 µM | NCI/ADR-RES > 100 µM | CAKI-1 17.1 µM | UACC-62 13.3 µM | MCF7 9.89 µM | HL-60 11.2 µM | EKVX 25.6 µM | KM12 15.4 µM | OVCAR-5 25.9 µM | M14 34.4 µM | SK-MEL-2 18.6 µM | MOLT-4 4.9 µM | BT-549 16.8 µM | HCT-116 58.3 µM | DU-145 21.8 µM

O=C(CC(Cc1ccccc1)c1ccc(Oc2ccccc2)cc1)Nc1cccc(Cl)c1 (stereo not given)
inactive: TK-10 10 µM | NCI-H226 7.48 µM | HT-29 5.79 µM | Hs-578T 7.85 µM | K562 3.34 µM | SNB-19 4.5 µM | NCI/ADR-RES 3.62 µM | CAKI-1 3.66 µM | UACC-62 3.04 µM | MCF7 3.42 µM | HL-60 3.02 µM | EKVX 4.4 µM | KM12 3.29 µM | OVCAR-5 28.6 µM | M14 4.88 µM | SK-MEL-2 3.56 µM | MOLT-4 3.69 µM | BT-549 7.67 µM | HCT-116 3.6 µM | DU-145 5.43 µM

CN(C1=NCCO1)c1cccc2c1CCCC2
inactive: TK-10 3.23 µM | NCI-H226 1.44 µM | HT-29 2.43 µM | Hs-578T 8.15 µM | K562 4.78 µM | SNB-19 8.04 µM | NCI/ADR-RES 3.6 µM | CAKI-1 3.6 µM | UACC-62 3.37 µM | MCF7 4.51 µM | HL-60 4.41 µM | EKVX 8.55 µM | KM12 6.97 µM | OVCAR-5 3.9 µM | M14 2.23 µM | SK-MEL-2 4.09 µM | MOLT-4 1.77 µM | BT-549 9.53 µM | HCT-116 2.99 µM | DU-145 9.55 µM

O=C1NC(=O)C2C3C=CC(C12)C1C2C(=O)NC(=O)C2C31 (stereo not given)
inactive: TK-10 > 250 µM | NCI-H226 177 µM | HT-29 177 µM | Hs-578T 100 µM | K562 234 µM | SNB-19 149 µM | NCI/ADR-RES > 250 µM | CAKI-1 203 µM | UACC-62 107 µM | MCF7 164 µM | HL-60 183 µM | EKVX 234 µM | KM12 220 µM | OVCAR-5 > 250 µM | M14 240 µM | SK-MEL-2 173 µM | MOLT-4 > 100 µM | BT-549 > 250 µM | HCT-116 211 µM | DU-145 > 250 µM

O=C1NC(=S)NC(=O)C1C(c1ccc([N+](=O)[O-])cc1)C1C(=O)NC(=S)NC1=O.c1ccncc1
inactive: TK-10 > 100 µM | NCI-H226 > 100 µM | HT-29 > 100 µM | Hs-578T > 100 µM | K562 > 100 µM | SNB-19 > 100 µM | NCI/ADR-RES > 100 µM | CAKI-1 > 100 µM | UACC-62 > 100 µM | MCF7 > 100 µM | HL-60 > 100 µM | EKVX > 100 µM | KM12 > 100 µM | OVCAR-5 > 100 µM | M14 > 100 µM | SK-MEL-2 > 100 µM | MOLT-4 > 100 µM | BT-549 > 100 µM | HCT-116 > 100 µM | DU-145 > 100 µM

O=C1C(NCCO)=C(N2CC2)C(=O)C(NCCO)=C1N1CC1
inactive: TK-10 > 100 µM | NCI-H226 57.5 µM | HT-29 49 µM | Hs-578T > 100 µM | K562 39.5 µM | SNB-19 60.7 µM | NCI/ADR-RES > 100 µM | CAKI-1 85.9 µM | UACC-62 25.1 µM | MCF7 > 100 µM | HL-60 13.2 µM | EKVX > 81.1 µM | KM12 74.5 µM | OVCAR-5 58.2 µM | M14 47.3 µM | SK-MEL-2 > 58.3 µM | MOLT-4 12.2 µM | BT-549 > 69 µM | HCT-116 29.6 µM | DU-145 > 77.3 µM

CCOC(=O)/C(C#N)=C/N(CC)/N=C/c1ccccc1
inactive: TK-10 > 100 µM | NCI-H226 > 100 µM | HT-29 > 100 µM | Hs-578T 54.7 µM | K562 > 100 µM | SNB-19 > 100 µM | NCI/ADR-RES 60.4 µM | CAKI-1 > 100 µM | UACC-62 > 100 µM | MCF7 > 100 µM | HL-60 > 100 µM | EKVX > 100 µM | KM12 > 100 µM | OVCAR-5 > 100 µM | M14 > 100 µM | SK-MEL-2 > 100 µM | MOLT-4 > 100 µM | BT-549 > 100 µM | HCT-116 > 100 µM | DU-145 > 100 µM
